Results: PubChem BioAssay AID434951 (Broad Institute, 2010)
pEC50: −log10 of the molar value. Activity calls are given as the source filed them.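 How the source made its calls: active means a fitted half-maximal concentration EC50 for the rise in nuclear signal no higher than ten times the top dose tested; inconclusive means flat fit with activity between 30% and 70%, or unusable fit; inactive means EC50 beyond ten times the top dose.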

Target: Hypoxia-inducible factor 1-alpha (Homo sapiens) (UniProt Q16665)
Sequence (Q16665 whole entry, looked up): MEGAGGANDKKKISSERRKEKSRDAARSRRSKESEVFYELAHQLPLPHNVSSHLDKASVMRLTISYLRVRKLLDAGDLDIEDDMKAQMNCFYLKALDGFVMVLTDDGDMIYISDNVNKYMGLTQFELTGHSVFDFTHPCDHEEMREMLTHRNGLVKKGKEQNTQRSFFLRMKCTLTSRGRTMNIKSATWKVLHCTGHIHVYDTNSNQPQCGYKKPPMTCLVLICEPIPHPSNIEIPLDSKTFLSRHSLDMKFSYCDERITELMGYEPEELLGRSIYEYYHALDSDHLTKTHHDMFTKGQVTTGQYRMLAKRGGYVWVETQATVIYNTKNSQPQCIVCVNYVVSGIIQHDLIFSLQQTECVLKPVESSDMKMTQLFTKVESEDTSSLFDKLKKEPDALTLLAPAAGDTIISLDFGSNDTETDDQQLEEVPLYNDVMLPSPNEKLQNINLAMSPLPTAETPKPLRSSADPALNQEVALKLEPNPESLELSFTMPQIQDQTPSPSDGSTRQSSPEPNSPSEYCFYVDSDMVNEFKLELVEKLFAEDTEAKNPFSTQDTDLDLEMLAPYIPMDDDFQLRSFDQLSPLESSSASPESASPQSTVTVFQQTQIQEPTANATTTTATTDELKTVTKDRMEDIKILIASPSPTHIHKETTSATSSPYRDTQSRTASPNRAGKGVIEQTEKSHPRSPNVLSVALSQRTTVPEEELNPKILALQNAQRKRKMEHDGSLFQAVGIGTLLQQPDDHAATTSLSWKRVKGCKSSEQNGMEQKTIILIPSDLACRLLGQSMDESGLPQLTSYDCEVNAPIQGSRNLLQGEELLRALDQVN
Experiment: HIF pathway activation, GFP-HIF1alpha translocation – imaging, fluorescence, U2OS GFP-HIF1alpha, confirmation (AID 434951)
Conditions: U2OS GFP-HIF1alpha nuclear intensity, high-content imaging

Question: With O=C(CCCc1ccccc1)Nc1ccccn1 as the molecule, how does the EC50 read?
Answer: The EC50 was > 35 µM (inactive).

Question: With Cc1ccc2nc(SCC(=O)c3ccccc3)nc(=O)n2c1 as the molecule, how does the EC50 read?
Answer: Its EC50 is > 35 µM (inactive).

Question: Nc1nc(-c2ccccn2)nc(N)c1Cc1ccc(Cl)cc1Cl was tested. Which pEC50 did it give?
Answer: Its pEC50 is 5.21.

Question: Which EC50 does the source give for CCOc1ccccc1NC(=O)COc1ccc2c(c1)OCO2 here?
Answer: Its EC50 is > 35 µM (inactive).

Question: How did the EC50 turn out when Cc1cc(Cl)n2c(nc3cc(F)c(F)cc32)c1C#N was run?
Answer: Its EC50 is > 35 µM (inactive).

Question: How did the pEC50 turn out when Cc1snc(SCC(=O)N/N=C(\N)COc2cccc(C(F)(F)F)c2)c1C#N was run?
Answer: Its pEC50 is 4.65.

Question: How did the pEC50 turn out when COc1cccc(/C=N/Nc2cc(-n3nc(C)cc3-c3ccccc3)ncn2)c1O was run?
Answer: Its pEC50 is 4.90.

Question: CCN(CC)c1ccc(/C=N/NC(=O)c2cccc(S(=O)(=O)N3CCOCC3)c2)c(O)c1 was tested. Which pEC50 did it give?
Answer: Its pEC50 is 5.95.

Question: With C/C(=N\Nc1nc2ccccc2[nH]1)c1ccccn1 as the molecule, how does the pEC50 read?
Answer: Its pEC50 is 5.74.

Question: With CC(=O)Nc1cccc(NC(=O)CS(=O)(=O)c2cn(CC(=O)N3CCOCC3)c3ccccc23)c1 as the molecule, how does the EC50 read?
Answer: Its EC50 is > 35 µM (inactive).

Question: With NC(=S)NNC(=O)c1cc(C(F)(F)F)cc(C(F)(F)F)c1 as the molecule, how does the EC50 read?
Answer: Its EC50 is > 35 µM (inactive).

Question: Cc1ccccc1Nc1c(-c2ccccn2)nc2ccccn12 was tested. Which pEC50 did it give?
Answer: Its pEC50 is 5.06.

Question: With CCN(CCCCCN(C)C)Cc1cc2ccccc2o1 as the molecule, how does the EC50 read?
Answer: Its EC50 is > 35 µM (inactive).

Question: CCCC(=O)NC(c1cccs1)c1cc(Cl)c2cccnc2c1O (stereo not drawn) was tested. Which pEC50 did it give?
Answer: Its pEC50 is 5.14.

Question: How did the pEC50 turn out when Oc1ccc2ccccc2c1/C=N/Nc1nnc(-c2ncc[nH]2)c2ccccc12 was run?
Answer: Its pEC50 is 5.07.

Question: For O=C(COC(=O)Cc1ccc(S(=O)(=O)N2CCCCC2)s1)Nc1ccc2c(c1)OCO2, which EC50 is on record?
Answer: Its EC50 is > 35 µM (inactive).

Question: For CN(CC(=O)Nc1ccc(S(=O)(=O)N2CCCC2)cc1)CC(=O)Nc1cccc(F)c1, which EC50 is on record?
Answer: The EC50 was > 35 µM (inactive).

Question: C=CCNC(=S)N/N=C(\C)c1ccccn1 was tested. Which pEC50 did it give?
Answer: The pEC50 was 5.18.

Question: With O=C(CSC1c2ccccc2-c2ccccc21)N/N=C/c1ccccc1O as the molecule, how does the pEC50 read?
Answer: Its pEC50 is 5.19.

Question: For COc1ccc(Cl)c(OC)c1C(=O)NC(=O)Nc1c(F)cc(F)cc1F, which EC50 is on record?
Answer: Its EC50 is > 35 µM (inactive).

Question: Which EC50 does the source give for COc1ccccc1/C=C/C(=O)c1ccccc1 here?
Answer: Its EC50 is > 35 µM (inactive).

Question: COc1ccccc1N=Nc1ccc(O)c2ncccc12 was tested. Which pEC50 did it give?
Answer: Its pEC50 is 5.12.

Question: With Cc1cc(C)c2nc(NNC(=O)c3ccc(S(=O)(=O)N4CCCC(C)C4)cc3)sc2c1 (stereo not drawn) as the molecule, how does the pEC50 read?
Answer: The pEC50 was 5.14.

Question: Which EC50 does the source give for O=C1C(=O)c2ccccc2C(O)=C1c1cccc([N+](=O)[O-])c1 here?
Answer: Its EC50 is > 35 µM (inactive).

Question: How did the EC50 turn out when CCSc1nc(NCCN(C)C)c2c3c(sc2n1)COC(C)(CC)C3 (stereo not drawn) was run?
Answer: The EC50 was > 35 µM (inactive).

Question: CC(C)NC(=O)NC(=O)CSc1nnc(-c2ccccc2F)n1N was tested. Which EC50 did it give?
Answer: Its EC50 is > 35 µM (inactive).

Question: With O=[N+]([O-])c1ccc(N=Cc2ccc(Br)c([N+](=O)[O-])c2)cc1 as the molecule, how does the pEC50 read?
Answer: Its pEC50 is 4.81.

Question: CCN(CC)c1ccc(/C=N/NC(=O)c2ccco2)c(O)c1 was tested. Which pEC50 did it give?
Answer: Its pEC50 is 5.16.

Question: How did the pEC50 turn out when Cn1c(N/N=C/c2cc3ccccc3nc2Cl)nc2ccccc21 was run?
Answer: Its pEC50 is 4.74.

Question: How did the EC50 turn out when CCC(=O)N1CCN(c2nc3ccc(Br)cc3s2)CC1 was run?
Answer: The EC50 was > 35 µM (inactive).

Question: Cc1cc(SCC(=O)N/N=C/c2ccc(O)c(O)c2O)c(C)cc1Br was tested. Which EC50 did it give?
Answer: The EC50 was > 35 µM (inactive).

Question: With Cc1ccc(-n2cc(CN3CCC(CO)(Cc4ccccc4)CC3)cn2)cc1 as the molecule, how does the EC50 read?
Answer: The EC50 was > 35 µM (inactive).

Question: How did the pEC50 turn out when CCCCC(=O)NC(c1ccccc1OC)c1ccc2cccnc2c1O (stereo not drawn) was run?
Answer: The pEC50 was 5.17.

Question: With CN(C)c1ccc(CNC(=O)CCS(=O)(=O)c2ccc3c(c2)oc(=O)n3C)cc1 as the molecule, how does the EC50 read?
Answer: Its EC50 is > 35 µM (inactive).

Question: How did the EC50 turn out when Cc1sc2ncnc(Sc3nnnn3-c3ccc(Cl)cc3)c2c1C was run?
Answer: Its EC50 is > 35 µM (inactive).

Question: With O=C(N/N=C/c1cc(Br)ccc1O)c1ccncc1 as the molecule, how does the EC50 read?
Answer: The EC50 was > 35 µM (inactive).

Question: O=C(O)c1ccccc1OCCOc1ccccc1C(=O)O was tested. Which EC50 did it give?
Answer: Its EC50 is > 35 µM (inactive).

Question: For O=C(NCc1cccs1)C1CC(=O)N(C2CCCC2)C1 (stereo not drawn), which EC50 is on record?
Answer: The EC50 was > 35 µM (inactive).

Question: With COC(=O)Nc1ccc(S(=O)(=O)N(C)C)cc1 as the molecule, how does the EC50 read?
Answer: The EC50 was > 35 µM (inactive).

Question: For O=C(Nc1cccc(Cl)c1)Nc1cccc(C(=O)O)c1, which EC50 is on record?
Answer: The EC50 was > 35 µM (inactive).

Question: How did the EC50 turn out when Cc1nc2cc(-c3ccccc3)sc2c(=O)n1N was run?
Answer: Its EC50 is > 35 µM (inactive).

Question: O=C(N/N=C(\c1ccccc1)c1cccnc1)c1cccc(F)c1 was tested. Which pEC50 did it give?
Answer: The pEC50 was 5.58.

Question: With CC(C)Cc1nnc(NC(=O)CCC(=O)N2CCC3(CC2)OCCO3)s1 as the molecule, how does the EC50 read?
Answer: Its EC50 is > 35 µM (inactive).

Question: Which EC50 does the source give for COc1cc(CC(=O)Nc2ccc(Cl)c(C(F)(F)F)c2)cc(OC)c1OC here?
Answer: The EC50 was > 35 µM (inactive).

Question: With O=C(N/N=C/c1c(O)ccc2ccccc12)c1[nH]ncc1Br as the molecule, how does the pEC50 read?
Answer: The pEC50 was 5.15.

Question: For CS(=O)(=O)c1ccc2nc(NC(=O)C3CC3)sc2c1, which EC50 is on record?
Answer: The EC50 was > 35 µM (inactive).

Question: For Cc1ccn2cc(-c3ccc(O)c(O)c3)nc2c1, which EC50 is on record?
Answer: Its EC50 is > 35 µM (inactive).

Question: Cc1ccc(CSc2nnc(CCCCCNC(=O)OC(C)(C)C)o2)cc1 was tested. Which EC50 did it give?
Answer: The EC50 was > 35 µM (inactive).

Question: How did the EC50 turn out when CC(C)c1ccc2oc(=O)cc(CN3CCOCC3)c2c1 was run?
Answer: The EC50 was > 35 µM (inactive).

Question: O=C(CNC(=O)c1ccccc1Br)N/N=C/c1cc(Br)ccc1O was tested. Which pEC50 did it give?
Answer: The pEC50 was 5.19.

Question: For COc1ccc2cc3c(N)nn(C(=O)Cc4c[nH]c5ccccc45)c3nc2c1, which EC50 is on record?
Answer: The EC50 was > 35 µM (inactive).

Question: Oc1c(CN2CCOCC2)cc(COCc2ccccc2)c2cccnc12 was tested. Which pEC50 did it give?
Answer: The pEC50 was 5.17.

Question: How did the EC50 turn out when COc1ccccc1C(=O)Oc1ccccc1C(=O)Nc1ccccc1 was run?
Answer: Its EC50 is > 35 µM (inactive).

Question: O=C(/C=C/c1ccccc1)NCCc1nc2ccccc2[nH]1 was tested. Which EC50 did it give?
Answer: Its EC50 is > 35 µM (inactive).

Question: With Oc1c(C(Nc2nc3ccccc3s2)c2ccco2)ccc2cccnc12 (stereo not drawn) as the molecule, how does the pEC50 read?
Answer: The pEC50 was 5.15.

Question: Which EC50 does the source give for CCN1CN(CCc2ccccc2)CNC1=S here?
Answer: Its EC50 is > 35 µM (inactive).

Question: How did the EC50 turn out when CC(C)=NOC(=O)c1c(C)noc1-c1snnc1C was run?
Answer: The EC50 was > 35 µM (inactive).

Question: CCOC(=O)C(=CNc1ccc(NC2=NCC(C)S2)cc1)C(=O)OCC (stereo not drawn) was tested. Which pEC50 did it give?
Answer: Its pEC50 is 5.08.

Question: Which EC50 does the source give for COc1ccccc1C(c1nnnn1CC1CCCO1)N1CCC(C(N)=O)CC1 (stereo not drawn) here?
Answer: Its EC50 is > 35 µM (inactive).

Question: Cc1ccccc1NC(=O)CN(C)S(=O)(=O)c1ccc(-c2ccc(=O)[nH]n2)s1 was tested. Which EC50 did it give?
Answer: The EC50 was > 35 µM (inactive).

Question: How did the pEC50 turn out when Nc1nonc1-n1nnc(C(=O)N/N=C/c2cc(Br)ccc2O)c1CSC1=NCCS1 was run?
Answer: Its pEC50 is 4.53.

Question: Which EC50 does the source give for C1CCC2(CC1)C1=C(CCCC1)Nc1nnnn12 here?
Answer: Its EC50 is > 35 µM (inactive).

Question: CC(C)(C)c1csc(NNC(=O)c2ccc(Br)cc2)n1 was tested. Which pEC50 did it give?
Answer: The pEC50 was 4.54.

Question: Cc1cc(C)c2sc(NNC(=O)c3ccc(S(=O)(=O)N4CCc5ccccc5C4)cc3)nc2c1 was tested. Which pEC50 did it give?
Answer: The pEC50 was 4.98.

Question: With Cc1ccc(O)c(NC(=O)c2ccc3c(c2)C(=O)N(Cc2ccco2)C3=O)c1 as the molecule, how does the EC50 read?
Answer: Its EC50 is > 35 µM (inactive).

Question: CCCC1CCC(=C(C#N)C(N)=O)CC1 (stereo not drawn) was tested. Which EC50 did it give?
Answer: Its EC50 is > 35 µM (inactive).

Question: For C=CCSc1cc(C)nc2c(-c3ccccc3)cnn12, which EC50 is on record?
Answer: Its EC50 is > 35 µM (inactive).

Question: With Oc1ccccc1/C=N/Nc1ncc(Br)cn1 as the molecule, how does the pEC50 read?
Answer: The pEC50 was 4.87.

Question: Which EC50 does the source give for CCOc1cc(/C=N/NC(=O)c2cccnc2)ccc1OCc1ccc(C(=O)OC)o1 here?
Answer: The EC50 was > 35 µM (inactive).

Question: Which EC50 does the source give for COc1ccc(NC(=O)Nc2ccc(CC(=O)O)cc2)cc1 here?
Answer: The EC50 was > 35 µM (inactive).

Question: COc1ccc(N2C(=O)[C@@H]3C(c4cccnc4)=NO[C@@H]3C2=O)cc1 was tested. Which EC50 did it give?
Answer: Its EC50 is > 35 µM (inactive).

Question: With CCCC(=O)NC(c1ccc(OC)cc1)c1ccc2cccnc2c1O (stereo not drawn) as the molecule, how does the pEC50 read?
Answer: The pEC50 was 5.14.

Question: How did the EC50 turn out when COc1ccc2[nH]c(C(=O)N/N=C/c3ccccc3OC)cc2c1 was run?
Answer: Its EC50 is > 35 µM (inactive).

Question: O=C(O)c1cccc(-n2cccc2/C=C2/SC(=O)N(CC(=O)N3CCCC3)C2=O)c1 was tested. Which EC50 did it give?
Answer: The EC50 was > 35 µM (inactive).

Question: With CC(C)C(=O)N1CCN(c2ccc(NC(=O)COc3ccccc3[N+](=O)[O-])cc2)CC1 as the molecule, how does the EC50 read?
Answer: Its EC50 is > 35 µM (inactive).

Question: How did the EC50 turn out when O=C(c1cc(Br)ccc1Cl)N1CCC2(CC1)OCCO2 was run?
Answer: Its EC50 is > 35 µM (inactive).

Question: With Cc1ccc2c(c1)cc(C(=O)NCc1ccccc1)n2C as the molecule, how does the EC50 read?
Answer: Its EC50 is > 35 µM (inactive).

Question: How did the pEC50 turn out when CCc1cc(C(=O)N/N=C/c2ccc(O)cc2O)c2ccccc2n1 was run?
Answer: The pEC50 was 4.76.
